Data published in US6127387A, “Use of CD4-binding small molecules to inhibit immune responses” (Thomas Jefferson University, priority 1997, dated 2000).
“Also recorded” adds a separate entry of the source.

Key:
CD4-MHC class II binding = molecular target: T1, CD4-MHC class II binding (Homo sapiens, UniProt P01730); test: CD4-MHC class II cell adhesion (rosette formation) assay, CD4-transfected COS-7 cells with Raji B cells; format: cell-based; settings: 100 μM compound, FIG. 2
T1 construct: expressed in transfected cells; host or cells: COS-7 cells (CD4, plasmid T4-pcDNA3); Raji B cells (endogenous MHC class II)
Description: The capacity of a compound to inhibit the interaction of CD4 and class II MHC gene products can be determined by a cell rosetting assay. A cell line, such as Cos-7, Cos-1 or the like, can be transiently transfected with a plasmid bearing a human CD4 cDNA operably linked to a promoter. In an alternative embodiment a COS-1 cell line can be stably transformed with a human CD4 expression plasmid. The human CD4expressing cells and a human class II MHC expressing cell are mixed so that cellular rosettes are formed.
No inhibition of resetting was observed when CD8-pcDNA3 transfected cells were rosetted with Raji cells, which also express MHC, class I products.
The sequence of human CD4 CDNA is given in Maddon, P. J. et al., 1985, CELL 42:93-104, which sequence is hereby incorporated by reference in its entirety. Maddon et al. refers to human CD4 as "T4." The plasmid T4-pMV7, containing the human CD4 cDNA is available from the AIDS Research and Reference Reagent Program, Division of AIDS, NIAID, NIH (McKesson BioServices, Rockville, Md.). The 3.0 Kb Eco R1 fragment of T4-pMV7 contains the 1.5 Kb CD4 CDNA.
For transfection of COS-7 cells, a CD4-expression plasmid T4-pcDNA3, was constructed by subcloning the 3.0 Kb Eco R1 fragment of T4-pMV7 into the EcoRI site of the mammalian expression vector pcDNA3 (INVITROGEN). Transfection was accomplished by DOSPER liposomal transfection reagent (BOEHRINGER MANNHEIM), by the following modification of the manufacturer's protocol.
9. Determine the CD4 expression levels as a measure of transfection efficiency by flow cytometry analysis. Usually between 30% and 40% of transfected COS-7 cells expressed human CD4 as defined by immunofluorescence binding assay for the interaction between CD4 and class II MHC proteins in the presence of organic chemicals by rosette formation: Raji B cells 10^7 in 1 ml of RPMI medium with 10% FCS and […] were added to each well 48 h post-transfection and incubated with transfected COS-7 cells in the presence of the test compound (individually 200 μM) at 37° C. for 1 h. Following incubation, wells were washed five or six times by dropping RPMI medium with FCS into wells. Rosette formation between Raji cells and transfected COS-7 cells was scored microscopically at 100-fold magnification. The number of rosette containing more than five Raji cells was counted in 10 random optical fields in each individual well; 300-400 rosettes per well were counted as the positive control for rosette formation without any inhibition in the absence of any chemicals. The inhibition activity for rosette formation for each chemical was determined by the ratio of the number of rosettes obtained in the presence of this chemical to the number of rosettes in the positive control. […]

SJL mice = test: EAE inhibition in vivo (PLP-induced acute EAE); set-up: species or system mouse; settings: single i.v. injection of 50 μg in 0.25% DMSO on day 12 post-challenge, FIG. 3
Protocol: The lead organic compounds were tested for in vivo immunosuppressive activity in murine EAE, an animal model for multiple sclerosis. An acute form of EAE was induced in SJL mice by subcutaneous challenge with proteolipid (PLP) epitope, MacRae, B. L., et al., 1995, J. Neuroimmunol. 60:17-28, (100 μg in 0.15 ml PBS emulsified in an equal volume of Complete Freund's Adjuvant) on days 0 and 7. Pertussis (Michigan Biological Products, Lansing Mich.) was administered 30 min after antigen injection on day 7 (0.25 ml containing 5×10^9 inactivated organisms, i.v.). Clinical symptoms of EAE were evaluated based on a 0-5 scale of ascending severity of symptoms, as previously described. Korngold, R., et al., 1986, Immunogenetics 24:309-315. The organic compounds were administered by a single i.v. injection of 50 μg of the compound in 0.25% DMSO (the compounds were not soluble in water alone) on day 12 post-challenge.

[1] = test system: C57B1/6 mice challenged with C57B1/6.H-2^bm12 tail skin; test: Class II MHC disparate skin allograft rejection (CD4+ T cell-mediated B6 anti-bm12 response); format: in vivo, mouse; settings: TJU103 single i.v. 100 μg in 0.5% DMSO 3 hours before transplantation, vs 0.5% DMSO diluent, FIG. 6
Protocol: The lead organic compounds were tested for inhibition of CD4^+ T cell-mediated skin allograft rejection using the MHC class II disparate model of C57B1/6 mice challenged with C57B1/6.H-2^bm12 tail skin. Following a modified method of Bailey and Usama (1960, Transplant. Bull. 7:424-425), donor tail skin grafts (0.25 cm×0.5 cm) were transplanted onto the ventral side of the tail of the recipient mouse, covered with a glass tube and held into position with short strips of adhesive tape for 2 days. The tubes were removed and the grafts monitored every other day for up to 80 days. […] Syngeneic grafts were also transplanted as negative controls for rejection. Median survival times (MST) were calculated and statistical comparisons were performed by Wilcoxin signed-rank non-parametric analysis utilizing SYSTAT 5.2 software.
The compounds were injected 3 hours before transplantation at a dosage of 50 μg in 0.2 ml 0.25% DMSO. […] Each group contained 4 animals except the TJU102 group, which contained 5 animals.
The lead organic compound TJU103 (N-(3-indoylmethylene)-isonicotinic hydrazone) was tested for inhibition of CD4^+ T cell-mediated skin allograft rejection using the CD4^+ T cell-mediated B6 anti-bm12 response. […] Median survival times were calculated and statistical comparisons were performed by Wilcoxin signed-rank non-parametric analysis using SYSTAT 5.2 software.

[2] = test system: (B6×CBA)F1 irradiated recipient mice; test: CD4+ T cell-mediated graft-versus-host disease lethality; format: in vivo, mouse; settings: 100 μg i.v. in 0.5% DMSO on days 0, 3 and 6 post-transplant, vs untreated control, p<0.001, FIG. 5
Protocol: The lead organic compound TJU103 (N-(3-indoylmethylene)-isonicotinic hydrazone) was tested for in vivo inhibition of CD4^+ T cell-mediatedgraft-versus-host disease lethality. (B6×CBA)F1 irradiated recipient mice were transplanted by i.v. injection with haploidentical (B6×DBA/2)F1 T cell-depleted bone marrow (ATBM) and CD4^+ T cells (3×10^6), which induces lethal graft-versus-host disease (GVHD). TJU103 was administered by i.v. injections at a dose of 100 μg in 0.5% DMSO on days 0, 3, and 6 post-transplant. […] Median survival times were calculated and statistical comparisons were performed by Wilcoxin signed-rank non-parametric analysis using SYSTAT 5.2 software.

[3] = test system: B6 recipient mice with bm1 tail skin allografts; test: Class I MHC disparate skin allograft survival (CD8+ T cell-mediated B6 anti-bm1 response); format: in vivo, mouse; settings: TJU103 single i.v. 100 μg in 0.5% DMSO 3 hours before transplantation, vs 0.5% DMSO diluent, FIG. 7
Protocol: The lead organic compound TJU103 (N-(3-indoylmethylene)-isonicotinic hydrazone) was tested for inhibition of CD8^+ T-cell mediated allograft survival using the CD8^+ T cell-mediated B6 anti-bm1 response. A single i.v. injection of 100 μg of TJU103 in 0.5% DMSO was administered into B6 recipient mice 3 hours before transplantation of MHC class I-disparate bm1 tail skin allografts following a modified method of Bailey and Usama (1960, Transplant Bull. 7:424 425). A group of mice were treated with anti-CD8 monoclonal antibody (2.43) as a […]. Median survival times were calculated and statistical comparisons were performed by Wilcoxin signed-rank non-parametric analysis using SYSTAT 5.2 software.

Q: For `Cn1c(CSCc2nc(-c3ccc(Cl)cc3)cs2)nnc1SCc1ccc(Cl)cc1` [TJU101, 5-(4-chlorobenzylthio)-3-{[(4-chlorophenyl)-2-thiazolyl]methylthiomethyl}-4-methyl-1,2,4-triazole], which inhibition at 100 µM (CD4-MHC class II binding) is on record?
A: > 40%

Q: With `O=C(NN=Cc1c[nH]c2ccccc12)c1ccncc1` [TJU103, N-(3-indoylmethylene)-isonicotinic hydrazone] as the compound, how does the inhibition at 100 µM (CD4-MHC class II binding) read?
A: > 40%

Q: What about the “severity of EAE” value (SJL mice) of the same compound?
A: statistically significant effect

Q: What about the “survival time of bm12 allografts” value [1] of the same compound?
A: prolongs survival time of the allografts; also recorded: effective in prolonging the median survival time of the allografts

Q: And the “median survival time of GVHD recipients” value [2]?
A: significantly prolongs the median survival time; also recorded: effective in prolonging median survival time

Q: What about the “survival time of bm1 allografts” value [3] of the same compound?
A: does not prolong survival time of the allografts

Q: `O=C(Nc1ccc(Cl)cc1Cl)c1nc(Cn2cncn2)n[nH]1` [TJU104, N-(2,4-dichlorophenyl)-3-(1,2,4-triazol-1-ylmethyl)-1,2,4-triazole-5-carboxamide] was tested. Which inhibition at 100 µM (CD4-MHC class II binding) did it give?
A: > 40%

Q: And the “severity of EAE” value (SJL mice)?
A: statistically significant effect

Q: For `COc1ccc(-c2cn3c(n2)sc2ccccc23)cc1` [TJU102], which inhibition at 100 µM (CD4-MHC class II binding) is on record?
A: > 40%
